Common to all, as to format: cell-based
Experiment [1] deals with non-small cell lung cancer (NSCLC) cell lines (A549, H460, Hop-92, H23). The experiment is described as follows: ATP level measurement with ATP assay kit after gossypol treatment. Particulars: 1 μM gossypol for 1 hour; FIG. 1. On the procedure: To examine whether energy generation in cancer cells was inhibited by gossypol, which is […], non-small cell lung cancer (NSCLC) cell lines, for example, an A549 cell line, an H460 cell line, an Hop-92 cell line and an H23 cell line, were treated with 1 μM gossypol for 1 hour, followed by measuring ATP levels using an ATP assay kit (Biovision; #K354-100). As a control, normal lung epithelial cells were used.

The test system of a further experiment is A549 cell line. The experiment is described as follows: ATP level measurement according to gossypol concentration. Particulars: 0, 0.1 or 1 μM gossypol for 1 hour; FIG. 2. The procedure:
Also, to investigate a change of ATP levels according to the concentration of gossypol, an A549 cell line was treated with 0, 0.1 or 1 μM gossypol for 1 hour, followed by measuring ATP levels.

The test system of experiment [2] is lung cancer cell lines (A549/ATCC, HOP-62, HOP-92, NCI-H23, NCI-H460, NCI-H522). The experiment is described as follows: SRB analysis of growth inhibition of lung cancer cell lines. Particulars: 48 hours incubation, single treatment, FIG. 3, read-out: GI50 concentration (50% growth inhibition). On the procedure:
(§1) An SRB analysis was performed to examine the effect of gossypol on inhibiting the growth of cancer cell lines. Specifically, according to the doubling time of lung cancer cell lines, for example, A549/ATCC, HOP-62, HOP-92, NCI-H23, NCI-H460 or NCI-H522 cell lines, 5000 to 40000 cells were seeded per well and grown in a 96-well microtiter plate. After 24 hours, the cells were treated with […] of 0, 0.1, 1, 10 or 100 μM gossypol per well, and incubated at 37° C. for 48 hours. Subsequently, […] of 50% cold (4° C.) trichloroacetic acid (TCA) was added to each of the attached cell lines, and […] of 80% TCA was added to each of the suspended cell lines to fix the cells. Following the incubation of the plate at 4° C. for 1 to 3 hours, the TCA solution in the plate was discarded, and then the plate was rinsed with distilled water five times. The plate was dried at room temperature for approximately 12 to 24 hours, and then fixed cells were stained with […] of sulforhodamine B (SRB) at room temperature for 5 minutes. After staining, the plate was washed with 1% glacial acetic acid three times, and dried at room temperature for approximately 12 to 24 hours. The SRB dye was dissolved with 10 mM Trizma base, and an optical density was measured at 515 nm. The effect of gossypol on inhibiting cancer cells was represented as 50% growth inhibition (GI50).

Experiment [3] deals with AMP-activated protein kinase (AMPK) phosphorylation in A549 lung cancer cell lines. The experiment in a line: AMPK phosphorylation by western blotting. As to conditions: 1 μM for 0, 8, 16 or 24 hours; 0, 0.1, 0.5 or 1 μM for 24 hours; FIG. 4. On the procedure: To examine the anticancer effect according to the treatment time or concentration of gossypol, A549 lung cancer cell lines were treated with 1 μM gossypol for 0, 8, 16 or 24 hours, and then the phosphorylation of an AMP-activated protein kinase (AMPK), which is a critical protein for cancer cell division, was analyzed by western blotting.
Also, after the individual treatment of 0, 0.1, 0.5 or 1 μM gossypol for 24 hours, AMPK phosphorylation was also analyzed by western blotting.
(In general: Immunoblotting shows a protein as a band on a membrane.)

In experiment [4] the test system is cancer cell lines A549/ATCC and NCI-H460. The experiment is described as follows: SRB analysis of single and combination treatment. As to conditions: 0.1-50 μM gossypol alone; FIGS. 5 and 6. On the procedure:
as §1, with “(GI50). […]” for “(GI50).”

SMILES strings stand for the structures.

As to `Cc1cc2c(C(C)C)c(O)c(O)c(C=O)c2c(O)c1-c1c(C)cc2c(C(C)C)c(O)c(O)c(C=O)c2c1O` [gossypol], the “levels of ATP production” value in experiment [1] is given as “inhibited”. In addition, in the experiment with A549 cell line, the “inhibition of the ATP production, concentration dependence” value is “dependent on the concentration of gossypol”. The GI50 in experiment [2] amounted to 5 µM. The AMPK phosphorylation entry in experiment [3] is “increased depending on the treatment time and concentration”. In addition, the “growth of the cancer cells, single treatment” value in experiment [4] was “hardly inhibited”.

These data come from patent US10085950B2, “Pharmaceutical composition for cancer treatment containing gossypol and phenformin as active ingredients” (NATIONAL CANCER CENTER, priority 2014, dated 2018).
